From ChEMBL document CHEMBL1201862, “PubChem BioAssay data set” (2004)
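Dose response: 5 concentrations. Exposure: 48 h. Format: 96-well plates. Endpoint: linear interpolation; highest concentration if not reached. Abbreviation: GI50, concentration required for 50% inhibition of growth.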 Calls of active or inactive are those of the source. Rule as the data show it: active = GI50 up to about 1.1 µM and inactive = higher.

Columns and labels:
Experiment in all cases: DTP human tumour cell line panel, 48 h
[1] = test system: HT-29
[2] = test system: KM12
[3] = test system: NCI-H23
[4] = test system: NCI-H460
[5] = test system: RPMI-8226
[6] = test system: RXF 393
[7] = test system: SF-539
[8] = test system: SK-OV-3
[9] = test system: SNB-75
[10] = test system: TK-10
[11] = test system: U-251
[12] = test system: UO-31
[13] = test system: HCT-15
[14] = test system: M14
[15] = test system: NCI-H226
[16] = test system: SN12C
[17] = test system: UACC-62
[18] = test system: CAKI-1

Structure (SMILES) | GI50 [1] | GI50 [2] | GI50 [3] | GI50 [4] | GI50 [5] | GI50 [6] | GI50 [7] | GI50 [8] | GI50 [9] | GI50 [10] | GI50 [11] | GI50 [12] | GI50 [13] | GI50 [14] | GI50 [15] | GI50 [16] | GI50 [17] | GI50 [18]
Fc1ccc2c(c1)SC1Oc3ccccc3-c3c1c-2nn3-c1ccccc1 (stereo not given) | > 100 µM (inactive) | > 100 µM (inactive) | > 100 µM (inactive) | > 100 µM (inactive) | > 100 µM (inactive) | 46.9 µM (inactive) | > 100 µM (inactive) | > 100 µM (inactive) | 86.7 µM (inactive) | > 100 µM (inactive) | > 100 µM (inactive) | > 100 µM (inactive) | – | – | – | – | – | –
O=C(CC1(O)C(=O)Nc2ccc(Br)cc21)c1ccc(Cl)cc1Cl (stereo not given) | 38.3 µM (inactive) | 52.6 µM (inactive) | 53.2 µM (inactive) | 49.8 µM (inactive) | 22.1 µM (inactive) | 91.6 µM (inactive) | 45.5 µM (inactive) | 79.1 µM (inactive) | 38 µM (inactive) | 56.2 µM (inactive) | 49.2 µM (inactive) | > 100 µM (inactive) | 69 µM | 34.8 µM (inactive) | 39.4 µM (inactive) | 35.6 µM (inactive) | 17.2 µM (inactive) | –
CNS(=O)(=O)NN(C)S(=O)(=O)c1ccc2ccccc2c1 | > 100 µM (inactive) | > 100 µM (inactive) | > 100 µM (inactive) | – | > 100 µM (inactive) | > 100 µM (inactive) | > 100 µM (inactive) | > 100 µM (inactive) | > 100 µM (inactive) | > 100 µM (inactive) | > 100 µM (inactive) | > 100 µM (inactive) | > 100 µM | > 100 µM (inactive) | > 100 µM (inactive) | > 100 µM (inactive) | > 100 µM (inactive) | > 100 µM (inactive)
CCCC(=O)N[C@@H](Cc1cc(I)c(O)c(I)c1)C(=O)NCCCNCCCCNCCCNC(=O)[C@@H](N)CCCN=C(N)N | > 100 µM (inactive) | 55 µM (inactive) | 31.4 µM (inactive) | 34.2 µM (inactive) | 40.6 µM (inactive) | > 100 µM (inactive) | 10.4 µM (inactive) | – | – | > 100 µM (inactive) | > 100 µM (inactive) | 29.8 µM (inactive) | > 100 µM | 25.7 µM (inactive) | > 100 µM (inactive) | > 100 µM (inactive) | 44.9 µM (inactive) | –
COc1c(Sc2ccccc2)cc(Sc2ccccc2)c2cccnc12 | 24.9 µM (inactive) | 24.4 µM (inactive) | 19.5 µM (inactive) | 20.2 µM (inactive) | 17.6 µM (inactive) | 11.8 µM (inactive) | 26.2 µM (inactive) | > 100 µM (inactive) | 19.5 µM (inactive) | 23.2 µM (inactive) | 29.2 µM (inactive) | 19.1 µM (inactive) | 15.4 µM | 27 µM (inactive) | – | 28.2 µM (inactive) | 18.2 µM (inactive) | 12.9 µM (inactive)
COc1ccc(CN2CC(C)(C)C2=O)c(OC)c1 | > 100 µM (inactive) | > 100 µM (inactive) | > 100 µM (inactive) | > 100 µM (inactive) | > 100 µM (inactive) | > 100 µM (inactive) | > 100 µM (inactive) | > 100 µM (inactive) | 70.8 µM (inactive) | > 100 µM (inactive) | > 100 µM (inactive) | > 100 µM (inactive) | > 100 µM | > 100 µM (inactive) | > 100 µM (inactive) | > 100 µM (inactive) | > 100 µM (inactive) | –
CC(=O)CC(=O)ON(C)C(C)=O | > 100 µM (inactive) | > 100 µM (inactive) | 43.4 µM (inactive) | > 100 µM (inactive) | > 100 µM (inactive) | > 100 µM (inactive) | > 100 µM (inactive) | > 100 µM (inactive) | > 100 µM (inactive) | > 100 µM (inactive) | > 100 µM (inactive) | > 100 µM (inactive) | – | > 100 µM (inactive) | > 100 µM (inactive) | > 100 µM (inactive) | > 100 µM (inactive) | > 100 µM (inactive)
O=C1/C(=C/c2ccccc2)CN(C(=O)OCC(Cl)(Cl)Cl)C/C1=C\c1ccccc1 | 1.6 µM (inactive) | 1.69 µM (inactive) | 2.25 µM (inactive) | 2.1 µM (inactive) | 0.0394 µM (active) | 1.68 µM (inactive) | 4.29 µM (inactive) | 7.48 µM (inactive) | 3.86 µM (inactive) | 4.46 µM (inactive) | 1.68 µM (inactive) | 3.52 µM (inactive) | 1.95 µM | 2.14 µM (inactive) | – | 1.84 µM (inactive) | 2.71 µM (inactive) | –
COc1ccc2cc3nc(O)cc(O)c3cc2c1OC | > 100 µM (inactive) | > 100 µM (inactive) | > 100 µM (inactive) | > 100 µM (inactive) | > 100 µM (inactive) | > 100 µM (inactive) | > 100 µM (inactive) | – | > 100 µM (inactive) | > 100 µM (inactive) | > 100 µM (inactive) | > 100 µM (inactive) | > 100 µM | > 100 µM (inactive) | > 100 µM (inactive) | > 100 µM (inactive) | > 100 µM (inactive) | > 100 µM (inactive)
COc1ccc2c(c1)CC[C@@H]1C2CC[C@]2(C)C(=N\O)/C(=N/O)CC12 (stereo not given in full) | 2.24 µM (inactive) | 11.2 µM (inactive) | 10.2 µM (inactive) | 3.41 µM (inactive) | 9.31 µM (inactive) | – | 18.5 µM (inactive) | 18.4 µM (inactive) | – | 18.2 µM (inactive) | 15.4 µM (inactive) | 12.8 µM (inactive) | 12.4 µM | 13.4 µM (inactive) | 11 µM (inactive) | 17.7 µM (inactive) | 13.4 µM (inactive) | 10.7 µM (inactive)
Clc1ccccc1C1=NN(c2ccccc2)C2c3cc(Br)ccc3OCC12 (stereo not given) | > 100 µM (inactive) | > 100 µM (inactive) | > 100 µM (inactive) | > 100 µM (inactive) | 67.9 µM (inactive) | > 100 µM (inactive) | > 100 µM (inactive) | > 100 µM (inactive) | > 100 µM (inactive) | > 100 µM (inactive) | > 100 µM (inactive) | > 100 µM (inactive) | – | – | – | – | – | –
CN(/C(=N\O)c1ccccc1)c1ccccc1 | 30.5 µM (inactive) | 36.3 µM (inactive) | 24.4 µM (inactive) | 32.5 µM (inactive) | – | – | 22.6 µM (inactive) | – | 13.5 µM (inactive) | – | 17.2 µM (inactive) | 25.5 µM (inactive) | – | 21.6 µM (inactive) | 21.3 µM (inactive) | 32.1 µM (inactive) | – | 37.2 µM (inactive)
COc1ccc(C2=NNC(=O)OC2c2ccccc2)cc1 (stereo not given) | 38 µM (inactive) | 40.9 µM (inactive) | 53.5 µM (inactive) | 53.2 µM (inactive) | > 100 µM (inactive) | 38 µM (inactive) | > 100 µM (inactive) | – | 28.1 µM (inactive) | > 100 µM (inactive) | > 100 µM (inactive) | > 100 µM (inactive) | 37.7 µM | 50.7 µM (inactive) | 34.3 µM (inactive) | > 100 µM (inactive) | 59.2 µM (inactive) | 92.3 µM (inactive)
Nc1ccc(C(=O)/C=C/c2ccccc2O)cc1 | > 100 µM (inactive) | > 100 µM (inactive) | > 100 µM (inactive) | > 100 µM (inactive) | – | > 100 µM (inactive) | > 100 µM (inactive) | > 100 µM (inactive) | > 100 µM (inactive) | > 100 µM (inactive) | > 100 µM (inactive) | > 100 µM (inactive) | > 100 µM | > 100 µM (inactive) | > 100 µM (inactive) | > 100 µM (inactive) | > 100 µM (inactive) | > 100 µM (inactive)
Cn1c(=O)c(C(=O)NC23CC4CC(CC(C4)C2)C3)c(O)c2ccccc21 | 15.8 µM (inactive) | > 100 µM (inactive) | 67.9 µM (inactive) | 22.3 µM (inactive) | > 100 µM (inactive) | 14.8 µM (inactive) | 26.7 µM (inactive) | 20.9 µM (inactive) | 28.4 µM (inactive) | 23.8 µM (inactive) | 24.5 µM (inactive) | 50.1 µM (inactive) | > 100 µM | 28.8 µM (inactive) | 13.4 µM (inactive) | 21.9 µM (inactive) | 53.7 µM (inactive) | –
CCOc1ccc(NC(=O)CC2SC(Nc3ccc(C)cc3)=NC2=O)cc1 (stereo not given) | > 100 µM (inactive) | > 100 µM (inactive) | > 100 µM (inactive) | > 100 µM (inactive) | – | > 100 µM (inactive) | > 100 µM (inactive) | > 100 µM (inactive) | > 100 µM (inactive) | > 100 µM (inactive) | > 100 µM (inactive) | > 100 µM (inactive) | > 100 µM | > 100 µM (inactive) | – | > 100 µM (inactive) | > 100 µM (inactive) | –
Nc1ncnc2c1N=CN(Oc1ccccc1)N2 | > 100 µM (inactive) | > 100 µM (inactive) | > 100 µM (inactive) | > 100 µM (inactive) | > 100 µM (inactive) | > 100 µM (inactive) | > 100 µM (inactive) | > 100 µM (inactive) | 14 µM (inactive) | > 100 µM (inactive) | > 100 µM (inactive) | – | > 100 µM | > 100 µM (inactive) | > 100 µM (inactive) | 21.5 µM (inactive) | > 100 µM (inactive) | > 100 µM (inactive)
CCOC(=O)c1cn2c([nH]c3ccccc32)c(C#N)c1=O | > 100 µM (inactive) | > 100 µM (inactive) | > 100 µM (inactive) | 47 µM (inactive) | – | > 100 µM (inactive) | > 100 µM (inactive) | > 100 µM (inactive) | > 100 µM (inactive) | > 100 µM (inactive) | > 100 µM (inactive) | 98.2 µM (inactive) | > 100 µM | > 100 µM (inactive) | > 100 µM (inactive) | > 100 µM (inactive) | > 100 µM (inactive) | > 100 µM (inactive)
